Tests used:
[1] = test system: previously treated NSCLC; settings: patients with previously treated NSCLC, phase 3 trial; cited from earlier work
[2] = test system: Ba/F3 cells expressing EML4-ALK C1156Y–L1198F; assay: Ba/F3 cell-survival assay; assay type: cell-based
[3] = test system: metastatic ALK-rearranged NSCLC; assay: Case report: treatment course of a patient with metastatic ALK-rearranged NSCLC; assay type: in vivo, human; settings: first restaging CT after 5 weeks of treatment, phase 1 trial, single patient
[4] = test system: Ba/F3 cells expressing EML4-ALK L1198F; assay: Ba/F3 cell-survival assay; assay type: cell-based
[5] = test system: ALK; settings: in cell lines; cited from earlier work

| Compound | Response rate [1] [%] | Sensitivity in cell-survival assay (in words) [2] | Reduction in tumor burden [3] [%] | Sensitivity in cell-survival assay (in words) [4] | Potency against ALK [5] |
| --- | --- | --- | --- | --- | --- |
| CCC1=C[C@@H]2CN(C1)Cc1c([nH]c3ccccc13)[C@@](C(=O)OC)(c1cc3c(cc1OC)N(C)[C@H]1[C@@](O)(C(=O)OC)[C@H](OC(C)=O)[C@]4(CC)C=CCN5CC[C@]31[C@@H]54)C2 [vinorelbine] | 0.8 | – | – | – | – |
| C[C@H]1Oc2cc(cnc2N)-c2c(nn(C)c2C#N)CN(C)C(=O)c2ccc(F)cc21 [lorlatinib, (10R)-7-amino-12-fluoro-2,10,16-trimethyl-15-oxo-10,15,16,17-tetrahydro-2H-8,4-(metheno)pyrazolo [4,3-h][2,5,11]-benzoxadiazacyclotetra decine-3-carbonitrile] | – | resistant | 41 | variable degrees of resistance | subnanomolar to low nanomolar |

Source: publication PMC4773904 (The New England journal of medicine, 2015)
